Experimental data reported in the CheMixHub viscosity set.

Experiment: xn = mol fraction of the nth substance listed

CC(=O)CC(C)C + CCCCCCO
viscosity [mPa·s], 100 kPa
Details	x1 = 0.0851	x1 = 0.1723	x1 = 0.2541	x1 = 0.3619	x1 = 0.4246	x1 = 0.5566	x1 = 0.6612	x1 = 0.7441	x1 = 0.8559	x1 = 0.9468
293.15 K	3.74	2.71	2	1.37	1.12	0.78	0.65	0.6	0.56	0.56
303.15 K	2.94	2.14	1.62	1.13	0.93	0.66	0.53	0.49	0.48	0.49
313.15 K	2.32	1.79	1.38	0.96	0.79	0.54	0.43	0.41	0.41	0.43
323.15 K	1.88	1.48	1.15	0.8	0.66	0.45	0.35	0.33	0.34	0.37

O=C1CCCCC1 + CCCCCCO
303.15 K, 101 kPa
Details	viscosity [mPa·s]
x1 = 0.1001	3.014
x1 = 0.2599	2.391
x1 = 0.4199	2.008
x1 = 0.5798	1.861
x1 = 0.7404	1.738

OCCOc1ccccc1 + CCCCCCO
viscosity [mPa·s], 101 kPa
Details	x2 = 0.1	x2 = 0.201	x2 = 0.301	x2 = 0.401	x2 = 0.501	x2 = 0.601	x2 = 0.701	x2 = 0.801	x2 = 0.9
303.15 K	10.95	9.244	8.099	7.25	6.508	5.696	4.981	4.335	3.978
313.15 K	7.906	7.005	6.239	5.548	4.764	4.151	3.605	3.222	2.981
323.15 K	5.285	4.821	4.389	3.866	3.518	3.128	2.716	2.358	2.148

CCCCCCCCCCCCCC[P+](CCCCCC)(CCCCCC)CCCCCC.c1nnc[n-]1 + CCCCCCn1cc[n+](C)c1.O=S(=O)([N-]S(=O)(=O)C(F)(F)F)C(F)(F)F
viscosity [mPa·s], 100 kPa
Details	x1 = 0.107	x1 = 0.208	x1 = 0.307	x1 = 0.4	x1 = 0.507	x1 = 0.622	x1 = 0.718	x1 = 0.805	x1 = 0.9
293.15 K	132	220	308	452	677	901	1162	1349	1458
298.15 K	103	165	227	329	485	633	811	932	1013
303.15 K	81	127	171	245	355	456	579	664	720
308.15 K	65	99	132	186	267	337	422	484	524
313.15 K	54	79	104	145	204	253	314	359	389
318.15 K	–	64	83	115	159	194	239	273	296
323.15 K	–	53	67	93	127	152	185	211	229

CC(=O)CC(C)C + CCCCCO
viscosity [mPa·s]
Details	x1 = 0.1011	x1 = 0.1974	x1 = 0.304	x1 = 0.4023	x1 = 0.5022	x1 = 0.6064	x1 = 0.7079	x1 = 0.7955	x1 = 0.8962
298.15 K, 101 kPa	2.47	1.89	1.46	1.2	1	0.856	0.738	0.668	0.592
298.15 K, 101.3 kPa	2.47	1.89	1.46	1.2	1	0.856	0.738	0.668	0.592
303.15 K, 101.3 kPa	2.2	1.7	1.32	1.1	0.919	0.792	0.694	0.624	0.558
308.15 K, 101.3 kPa	1.96	1.53	1.2	1.01	0.846	0.735	0.646	0.589	0.53
313.15 K, 101.3 kPa	1.75	1.38	1.09	0.915	0.781	0.683	0.601	0.555	0.501

O=C1CCCCC1 + CCCCCO
303.15 K, 101 kPa
Details	viscosity [mPa·s]
x1 = 0.1012	2.388
x1 = 0.2586	1.983
x1 = 0.4201	1.737
x1 = 0.5809	1.622
x1 = 0.7407	1.565

CC=Cc1ccc2c(c1)OCO2 + CCCCCOC(C)=O
Details	viscosity [mPa·s]
298.15 K, 101 kPa, x1 = 0.137	0.958

CC(=O)CC(C)C + CCCCN(CCCC)CCCC
viscosity [mPa·s], 101 kPa
Details	298.15 K	303.15 K	308.15 K
x2 = 0.0501	0.564	0.53	0.499
x2 = 0.1	0.593	0.556	0.524
x2 = 0.1499	0.622	0.582	0.549
x2 = 0.2004	0.653	0.609	0.576
x2 = 0.25	0.685	0.638	0.601
x2 = 0.3017	0.719	0.668	0.628
x2 = 0.4004	0.786	0.727	0.681
x2 = 0.4999	0.856	0.788	0.737
x2 = 0.6004	0.928	0.855	0.796
x2 = 0.6962	1.002	0.922	0.855
x2 = 0.8004	1.087	0.998	0.922
x2 = 0.8496	1.129	1.033	0.954
x2 = 0.8997	1.171	1.07	0.988
x2 = 0.9499	1.22	1.114	1.023

CC(=O)CC(C)C + CCCCO
101 kPa
Details	viscosity [mPa·s]
303.15 K, x2 = 0.1311	0.542
303.15 K, x2 = 0.2531	0.592
303.15 K, x2 = 0.367	0.653
303.15 K, x2 = 0.4745	0.748
303.15 K, x2 = 0.5795	0.862
303.15 K, x2 = 0.6729	0.997
303.15 K, x2 = 0.7627	1.185
303.15 K, x2 = 0.8465	1.42
303.15 K, x2 = 0.9254	1.728
313.15 K, x2 = 0.1311	0.482
313.15 K, x2 = 0.2533	0.526
313.15 K, x2 = 0.3677	0.578
313.15 K, x2 = 0.4745	0.647
313.15 K, x2 = 0.5754	0.733
313.15 K, x2 = 0.6704	0.844
313.15 K, x2 = 0.7604	0.98
313.15 K, x2 = 0.9236	1.43
323.15 K, x2 = 0.1319	0.428
323.15 K, x2 = 0.2542	0.464
323.15 K, x2 = 0.3688	0.507
323.15 K, x2 = 0.4759	0.565
323.15 K, x2 = 0.5759	0.621
323.15 K, x2 = 0.6721	0.707
323.15 K, x2 = 0.7597	0.801
323.15 K, x2 = 0.8452	0.937
323.15 K, x2 = 0.9386	1.136

CCCCCCO + CCCCO
Details	viscosity [mPa·s]
294.55 K, 100 kPa, x2 = 0.31	3.994

CCOCC + CCCCO
303.16 K, 101 kPa
Details	viscosity [mPa·s]
x1 = 0.09	1.958
x1 = 0.17	1.512
x1 = 0.27	0.9582
x1 = 0.4	0.8084
x1 = 0.51	0.6978
x1 = 0.6	0.5936
x1 = 0.67	0.4746
x1 = 0.74	0.3798
x1 = 0.81	0.291

O=C1CCCCC1 + CCCCO
101 kPa
Details	viscosity [mPa·s]
298.15 K, x1 = 0.0997	2.13
298.15 K, x1 = 0.2002	1.87
298.15 K, x1 = 0.3022	1.73
298.15 K, x1 = 0.3878	1.66
298.15 K, x1 = 0.5036	1.63
298.15 K, x1 = 0.6016	1.64
298.15 K, x1 = 0.6966	1.67
298.15 K, x1 = 0.7992	1.74
298.15 K, x1 = 0.8984	1.82
303.15 K, x1 = 0.1001	1.855
303.15 K, x1 = 0.2591	1.662
303.15 K, x1 = 0.4202	1.556
303.15 K, x1 = 0.5804	1.517
303.15 K, x1 = 0.7265	1.534
303.15 K, x1 = 0.8935	1.622

CC(=O)CC(C)C + CCCCOC(C)=O
298.15 K, 101.33 kPa
Details	viscosity [mPa·s]
x1 = 0.128	0.66
x1 = 0.2471	0.643
x1 = 0.3594	0.628
x1 = 0.4715	0.612
x1 = 0.5881	0.595
x1 = 0.6863	0.583
x1 = 0.7901	0.57
x1 = 0.8902	0.556

O=C1CCCCC1 + CCCCOC(C)=O
viscosity [mPa·s], 101 kPa
Details	298.15 K	303.15 K	308.15 K	313.15 K
x1 = 0.1162	0.689	–	–	–
x1 = 0.2283	0.732	–	–	–
x1 = 0.3365	0.788	–	–	–
x1 = 0.441	0.871	–	–	–
x1 = 0.542	0.976	–	–	–
x1 = 0.6397	1.109	–	–	–
x1 = 0.7341	1.281	–	–	–
x1 = 0.8256	1.478	–	–	–
x1 = 0.9142	1.731	–	–	–
x2 = 0.0814	1.757	1.589	1.445	1.321
x2 = 0.165	1.536	1.393	1.274	1.166
x2 = 0.2509	1.362	1.235	1.137	1.045
x2 = 0.3438	1.214	1.101	1.016	0.934
x2 = 0.4391	1.099	0.999	0.922	0.852
x2 = 0.5412	0.995	0.904	0.838	0.775
x2 = 0.6451	0.914	0.83	0.774	0.715
x2 = 0.7589	0.836	0.763	0.711	0.66
x2 = 0.8707	0.767	0.7	0.658	0.61

CCOCC + CCCO
101 kPa
Details	viscosity [mPa·s]
298.15 K, x1 = 0.09896	1.404
298.15 K, x1 = 0.1949	1.024
298.15 K, x1 = 0.3032	0.753
298.15 K, x1 = 0.4198	0.562
298.15 K, x1 = 0.5476	0.427
298.15 K, x1 = 0.6864	0.336
298.15 K, x1 = 0.8353	0.272
303.16 K, x1 = 0.07	1.682
303.16 K, x1 = 0.15	1.591
303.16 K, x1 = 0.25	1.417
303.16 K, x1 = 0.37	1.237
303.16 K, x1 = 0.47	0.8879
303.16 K, x1 = 0.59	0.6163
303.16 K, x1 = 0.73	0.4922
303.16 K, x1 = 0.78	0.3645
303.16 K, x1 = 0.92	0.2804

O=C1CCCCC1 + CCCO
303.15 K, 101 kPa
Details	viscosity [mPa·s]
x1 = 0.1012	1.452
x1 = 0.2601	1.283
x1 = 0.4199	1.243
x1 = 0.5794	1.3
x1 = 0.7393	1.392
x1 = 0.8997	1.576
